Six molecules from ChEMBL document CHEMBL1149308, “4-{(2R)-[3-Aminopropionylamido]-3-(2,4-dichlorophenyl)propionyl}-1-{2-[(2-thienyl)ethylaminomethyl]phenyl}piperazine as a potent and selective melanocortin-4 receptor antagonist--design, synthesis, and characterization” (J Med Chem, 2004) can be followed below.

For data set [1], the target named is T1, Melanocortin receptor 4 (Homo sapiens, UniProt P32245). Description: Antagonist activity at human MC4 receptor expressed in HEK293 cells assessed as inhibition of alpha-MSH-stimulated cAMP production. Format: functional, cell-based. As to conditions: read-out: pA2 (converted). In general terms: Changes in cAMP serve as a functional read-out for many G protein-coupled receptors.

The target of data set [2] is T2, Melanocyte-stimulating hormone receptor (Homo sapiens, UniProt Q01726). In kind it is cell-based, HEK293.
Target sequence in this assay (Q01726 whole entry): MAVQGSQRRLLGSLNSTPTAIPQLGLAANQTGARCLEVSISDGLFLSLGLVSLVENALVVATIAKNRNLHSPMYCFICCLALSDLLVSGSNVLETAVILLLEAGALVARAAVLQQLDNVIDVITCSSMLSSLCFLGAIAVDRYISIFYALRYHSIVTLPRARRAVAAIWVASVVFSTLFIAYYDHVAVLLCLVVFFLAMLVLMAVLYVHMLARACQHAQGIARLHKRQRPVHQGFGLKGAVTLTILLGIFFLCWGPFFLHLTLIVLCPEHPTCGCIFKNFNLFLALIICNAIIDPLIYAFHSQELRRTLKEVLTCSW
The target of data set [3] is T3, Melanocortin receptor 3 (Homo sapiens, UniProt P41968). In kind it is cell-based, HEK293.
In a further data set the target is Melanocortin receptor 5 (Homo sapiens, UniProt P33032). In kind it is cell-based, HEK293.
The nature of data set [4]: Distribution coefficient, log D at pH 7.4. The conditions noted are these: octanol/water. Format: physicochemical.
Data set [5] can be described thus: Clearance in rat at 10 mg/kg, iv. In kind it is ADME, organism-based. On the set-up: dose 10 mg/kg, route intravenous. As to conditions: in vivo.
Data set [6] can be described thus: Volume of distribution in rat at 10 mg/kg, iv. Format: ADME, organism-based. On the set-up: dose 10 mg/kg, route intravenous. The conditions noted are these: in vivo, read-out: Vdss.
Data set [7] can be described thus: Half life in rat at 10 mg/kg, iv. Format: ADME, organism-based. The arrangement: dose 10 mg/kg, route intravenous. The conditions noted are these: in vivo.
Data set [8] can be described thus: Concentration in rat brain at 2 mg/kg, iv after […]. Format: ADME, organism-based. On the set-up: dose 2 mg/kg, route intravenous. As to conditions: read-out: Drug uptake.
Data set [9] is described as follows: Plasma concentration in rat at 2 mg/kg, iv after […]. In kind it is ADME, organism-based. The arrangement: dose 2 mg/kg, route intravenous.
A short description of data set [10]: Ratio of drug level in brain to plasma of rat at 2 mg/kg, iv after […]. Format: ADME, organism-based. The arrangement: dose 2 mg/kg, route intravenous.
Data set [11] is described as follows: Tmax in rat at 10 mg/kg, po. Format: ADME, organism-based. The conditions noted are these: in vivo. On the set-up: dose 10 mg/kg, route oral.
A short description of data set [12]: Cmax in rat at 10 mg/kg, po. In kind it is ADME, organism-based. On the set-up: dose 10 mg/kg, route oral. As to conditions: in vivo.
The nature of data set [13]: AUC in rat at 10 mg/kg, po. Format: ADME, organism-based. The arrangement: dose 10 mg/kg, route oral. As to conditions: plasma.
Data set [14] in a line: Intrinsic clearance in human liver microsomes. In kind it is ADME, Microsome. Background: Liver microsomes are a subcellular fraction often used to study metabolism.
Data set [15] can be described thus: Oral bioavailability in rat at 10 mg/kg, po. In kind it is ADME, organism-based. The conditions noted are these: in vivo.
In data set [16] the target is T1, Melanocortin receptor 4.
Description: (§1) Displacement of [125]NDP-MSH from human MC4 receptor expressed in HEK293 cells
The target of data set [17] is T1, Melanocortin receptor 4. Put plainly: biochemical.
Description: as §1
The target of data set [18] is T2, Melanocyte-stimulating hormone receptor. Description: Inhibition of human MC1 receptor expressed in HEK293 cells at 10 uM. In kind it is cell-based.
Target sequence in this assay (Q01726 whole entry, looked up): as the sequence (Q01726 whole entry) above
Data set [19] concerns the target T3, Melanocortin receptor 3. Description: Inhibition of human MC3 receptor expressed in HEK293 cells at 10 uM. In kind it is cell-based.
Data set [20] concerns the target T1, Melanocortin receptor 4. This is another data set of the same source.
Description: Agonist activity at human MC4 receptor expressed in HEK293 cells assessed as stimulation of cAMP production
For data set [21], the target named is T1, Melanocortin receptor 4. The conditions noted are these: HEK293.
Description: as §1

A word on the Ki: it is a dissociation constant, usually derived from enzyme kinetics or from competition with a known ligand. In general, logD refers to lipophilicity at a set pH, counting ionised and neutral species. A lower logD goes with a more hydrophilic compound. Broadly, the clearance is the volume of plasma or blood freed of the substance per unit of time. A lower clearance goes with a low capacity for elimination. As a reminder, the half-life is how long it takes for the measured level to halve. As usually defined, the Kp is the ratio of the level in a tissue or fluid to that in plasma or blood. The term Tmax denotes the time at which the peak concentration occurs. What is called Cmax is the maximum level reached in the sampled fluid or tissue. As usually defined, the AUC is the area under the concentration-time curve, a measure of exposure. Higher therefore signals high exposure. By CLint scaled is commonly meant the capacity of the preparation to metabolise the compound, expressed as a volume cleared per time. High values mean faster metabolism, low ones greater metabolic stability. Broadly, the bioavailability is dose-corrected exposure relative to a reference, in per cent. What is called inhibition is the change of the read-out against control, counted positive when it falls. Read a low inhibition as a weak effect. Broadly, the EC50 is the concentration that produces a half-maximal response. A low value points to a more potent agent.

Structures are written as SMILES. The source made the active and inactive calls. No cut-off for these calls is given here.

T1 sequence (P32245 whole entry): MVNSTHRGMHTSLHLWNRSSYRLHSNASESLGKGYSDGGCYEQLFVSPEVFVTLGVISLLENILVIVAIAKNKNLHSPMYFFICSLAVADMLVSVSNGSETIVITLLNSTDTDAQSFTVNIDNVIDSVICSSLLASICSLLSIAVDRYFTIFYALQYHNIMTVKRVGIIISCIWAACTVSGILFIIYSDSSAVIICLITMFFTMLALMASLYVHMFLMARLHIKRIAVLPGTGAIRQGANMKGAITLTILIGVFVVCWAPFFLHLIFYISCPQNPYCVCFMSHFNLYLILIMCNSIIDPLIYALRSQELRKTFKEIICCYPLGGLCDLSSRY
T3 sequence (P41968 whole entry): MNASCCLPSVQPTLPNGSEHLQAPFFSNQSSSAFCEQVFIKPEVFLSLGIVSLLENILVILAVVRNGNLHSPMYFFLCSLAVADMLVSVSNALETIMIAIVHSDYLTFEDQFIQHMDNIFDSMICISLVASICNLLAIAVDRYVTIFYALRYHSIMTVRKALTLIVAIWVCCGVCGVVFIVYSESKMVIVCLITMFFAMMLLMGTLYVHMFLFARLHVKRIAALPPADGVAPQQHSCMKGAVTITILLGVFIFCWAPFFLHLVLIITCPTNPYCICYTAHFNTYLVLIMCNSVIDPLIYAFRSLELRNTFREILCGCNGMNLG
Sequence of Melanocortin receptor 5 (P33032 whole entry): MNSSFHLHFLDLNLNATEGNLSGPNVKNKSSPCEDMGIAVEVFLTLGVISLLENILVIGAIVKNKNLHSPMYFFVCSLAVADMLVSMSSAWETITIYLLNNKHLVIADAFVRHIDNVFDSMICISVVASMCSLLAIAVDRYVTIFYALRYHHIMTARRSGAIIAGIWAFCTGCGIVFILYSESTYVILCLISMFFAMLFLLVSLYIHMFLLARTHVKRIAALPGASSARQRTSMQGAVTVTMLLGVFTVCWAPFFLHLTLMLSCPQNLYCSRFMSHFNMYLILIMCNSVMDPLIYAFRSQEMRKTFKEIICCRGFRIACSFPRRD

Regarding `NCCC(=O)N[C@H](Cc1ccc(Cl)cc1Cl)C(=O)N1CCN(c2ccccc2CNCCc2cccs2)CC1`, the Kb at Melanocortin receptor 4 [1] was 12.6 nM (antagonist). In addition, the Ki is 4200 nM (antagonist) in data set [2], 640 nM (antagonist) on Melanocortin receptor 3 [3], 280 nM (antagonist) on Melanocortin receptor 5 and 1.8 nM (antagonist) at Melanocortin receptor 4 [16]. Besides, in data set [4], the logD worked out at 1.1. For the same molecule, the clearance in data set [5] came to 24 mL/min/kg. For the same molecule, in [6], the Vd was 9.5 L/kg. The same molecule gave a half-life in data set [7] of 4.6 h. Moreover, the concentration at […] in [8] came to 75 ng/g; in data set [9] it was 71 ng/mL. Moreover, the Kp at […] in [10] came to 1. Also, the Tmax in [11] turned out to be 0.5 h. In [12], this molecule had a Cmax of 18 ng/mL. Further, the AUC in [13] is 51 ng·h/mL. In data set [14], this molecule yielded a CLint scaled of 23 mL/min/kg. In data set [15], this molecule returned a bioavailability of 1%.
Take `Cn1nnc(CC2(C3CCCCC3)CCN(C(=O)[C@@H](Cc3ccc(Cl)cc3)NC(=O)[C@H]3Cc4ccccc4CN3)CC2)n1`: the Ki on Melanocortin receptor 4 [17] is recorded as 1.2 nM (antagonist).
Regarding `NCc1ccccc1N1CCN(C(=O)[C@@H](Cc2ccc(Cl)cc2)NC(=O)[C@H]2Cc3ccccc3CN2)CC1`, the inhibition was found to be 27% in [18] and 34% against Melanocortin receptor 3 [19]. Also, the EC50 at Melanocortin receptor 4 [20] is 890 nM (agonist).
Turning to `NCC(=O)N[C@H](Cc1ccc(Cl)cc1)C(=O)N1CCN(c2ccccc2CNCCc2cccs2)CC1`, on Melanocortin receptor 4 [20], the EC50 was 580 nM (agonist).
In the case of `CS(=O)(=O)N1CC2(CCN(C(=O)[C@@H](Cc3ccccc3)NC(=O)[C@@H](N)Cc3c[nH]cn3)CC2)c2ccccc21`, on Melanocortin receptor 4 [21], the outcome was inactive.
In the case of `NCCC(=O)N[C@H](Cc1ccc(Cl)cc1)C(=O)N1CCN(c2ccccc2CNCCc2cccs2)CC1`, the Ki on Melanocortin receptor 3 [3] was 1400 nM (antagonist).
